# Results: patent US20240425491A1, “HETEROARYL COMPOUNDS USEFUL IN THE TREATMENT OF COGNITIVE DISORDERS” (University College Cardiff Consultants Limited, priority 2021, published 2024)
# Assays:
# [1] = target: T1, human α5β3γ2 GABAARs in mouse L(tk−) cells (Homo sapiens, UniProt P18507+P31644); test: In vitro electrophysiological recording assay (α5-GABAAR relative efficacy), QPatch; type: cell-based
# T1 construct: expressed in transfected cells; host or cells: mouse L(tk−) cells, dexamethasone-inducible vector pMSGneo
# T1 sequence (P31644 32-462): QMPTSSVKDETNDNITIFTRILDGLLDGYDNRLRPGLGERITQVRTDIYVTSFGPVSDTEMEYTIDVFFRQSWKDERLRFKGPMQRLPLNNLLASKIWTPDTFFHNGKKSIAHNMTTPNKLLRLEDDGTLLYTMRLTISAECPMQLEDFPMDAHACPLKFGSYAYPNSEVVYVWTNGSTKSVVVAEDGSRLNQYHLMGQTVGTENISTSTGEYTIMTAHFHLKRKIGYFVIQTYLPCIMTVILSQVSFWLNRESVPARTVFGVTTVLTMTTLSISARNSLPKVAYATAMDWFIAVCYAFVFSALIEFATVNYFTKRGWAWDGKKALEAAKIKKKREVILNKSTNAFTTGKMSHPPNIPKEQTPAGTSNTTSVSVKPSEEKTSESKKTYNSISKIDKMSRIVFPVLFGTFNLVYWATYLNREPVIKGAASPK
# T1 sequence (P28472 26-473 partner): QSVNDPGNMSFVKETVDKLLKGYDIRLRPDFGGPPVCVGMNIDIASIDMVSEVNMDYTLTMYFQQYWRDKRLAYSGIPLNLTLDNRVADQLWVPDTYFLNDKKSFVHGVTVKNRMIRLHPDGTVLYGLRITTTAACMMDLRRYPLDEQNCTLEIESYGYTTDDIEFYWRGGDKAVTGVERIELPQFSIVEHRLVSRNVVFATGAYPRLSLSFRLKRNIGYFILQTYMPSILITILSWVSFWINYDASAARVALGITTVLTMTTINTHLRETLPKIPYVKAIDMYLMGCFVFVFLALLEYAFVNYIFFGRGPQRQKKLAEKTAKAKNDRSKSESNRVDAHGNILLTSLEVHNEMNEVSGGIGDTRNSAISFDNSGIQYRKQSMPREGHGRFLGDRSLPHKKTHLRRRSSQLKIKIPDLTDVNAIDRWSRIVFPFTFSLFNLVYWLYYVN
# T1 sequence (P18507 40-475): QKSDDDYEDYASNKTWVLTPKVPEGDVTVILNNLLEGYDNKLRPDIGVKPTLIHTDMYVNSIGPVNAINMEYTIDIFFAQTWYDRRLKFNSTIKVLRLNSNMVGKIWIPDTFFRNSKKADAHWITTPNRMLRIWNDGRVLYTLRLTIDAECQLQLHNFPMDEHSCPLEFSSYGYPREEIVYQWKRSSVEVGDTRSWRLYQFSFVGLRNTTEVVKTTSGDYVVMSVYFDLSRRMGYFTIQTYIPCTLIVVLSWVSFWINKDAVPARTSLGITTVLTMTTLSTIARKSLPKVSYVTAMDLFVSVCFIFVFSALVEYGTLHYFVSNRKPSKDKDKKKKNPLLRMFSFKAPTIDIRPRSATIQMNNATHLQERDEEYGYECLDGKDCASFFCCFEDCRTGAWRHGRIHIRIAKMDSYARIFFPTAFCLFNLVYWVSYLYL
# Outline: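 Whole-cell QPatch recordings at 20-22° C, −65 mV holding, in dexamethasone-induced (1 μM, 24 h) L(tk−) cells. Compound pre-applied ≥1 min, then co-applied with GABA EC10-20; percentage change in leak-corrected peak current, taken at ≥100× Ki, normalised to DMCM efficacy; 0.1% DMSO final.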
# [2] = target: T2, human α5β3γ2L GABAA receptors in HEK293 cells (Homo sapiens, UniProt P18507+P31644); test: In vitro electrophysiological recording assay (α5-GABAAR relative efficacy), SyncroPatch; type: cell-based; conditions: Conc 0.1 μM; GABA EC10-20
# T2 construct: expressed in transfected cells
# T2 sequence (P31644 32-462): as the sequence (P31644 32-462) above
# T2 sequence (P28472 26-473 partner): as the sequence (P28472 26-473 partner) above
# T2 sequence (P18507 40-475): as the sequence (P18507 40-475) above
# Outline: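 HEK293 cells stably expressing the receptor, automated whole-cell patch clamp at −80 mV, room temperature (20-22° C). Compound pre-incubated 1-2 min, then co-applied with GABA EC10-20; % change in peak current vs GABA alone (leak-subtracted). Tested generally at ≥100× Ki and normalised to DMCM efficacy as relative efficacy.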
compound,measurement,setting,value
"COc1nc(-n2ccnc2)ccc1NC(=O)c1c(-c2ccccc2)noc1C [Example 1, N-(6-Imidazol-1-yl-2-methoxy-3-pyridyl)-5-methyl-3-phenyl-isoxazole-4-carboxamide]",GABA-elicited whole-cell current in the presence of compound,"[1]; 1 μM, QPatch, same cell before and after addition, FIG. 1",smaller current
same,"α5-GABAAR Relative Efficacy (to DMCM), Qpatch","[1]; Conc 1 μM, GABA EC10-20",−0.91
same,"α5-GABAAR Relative Efficacy (to DMCM), SyncroPatch",[2],−1.11
